Here are results for 14 molecules from patent US8653100B2 (AbbVie Inc., priority 2008, dated 2014).

Counter-ions that a name gives are not always drawn.

One may read the IC50 as the midpoint of a concentration-inhibition curve.

The target in one assay is human GlyT1c transporter (Homo sapiens (Human), UniProt P48067). Kind of assay: Radioligand binding assay using recombinant CHO cell membranes expressing human GlyT1. Particulars: examples 88-204, radioligand not specified by footnote, read-out: radioligand binding Kiapp. Put shortly: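 Apparent Ki values were derived by Cheng-Prusoff from one-site IC50 fits of displacement curves. Membranes from recombinant CHO cells (human GlyT1c, 50 μg/ml) were incubated 1 h at room temperature with 0.5 nM [^3H]-(R)-NPTS and test compound (1% DMSO, pH 7.5 buffer), with 10 μM Org24598 for non-specific binding, then filtered and counted.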
human GlyT1c transporter, sequence (P48067 whole entry): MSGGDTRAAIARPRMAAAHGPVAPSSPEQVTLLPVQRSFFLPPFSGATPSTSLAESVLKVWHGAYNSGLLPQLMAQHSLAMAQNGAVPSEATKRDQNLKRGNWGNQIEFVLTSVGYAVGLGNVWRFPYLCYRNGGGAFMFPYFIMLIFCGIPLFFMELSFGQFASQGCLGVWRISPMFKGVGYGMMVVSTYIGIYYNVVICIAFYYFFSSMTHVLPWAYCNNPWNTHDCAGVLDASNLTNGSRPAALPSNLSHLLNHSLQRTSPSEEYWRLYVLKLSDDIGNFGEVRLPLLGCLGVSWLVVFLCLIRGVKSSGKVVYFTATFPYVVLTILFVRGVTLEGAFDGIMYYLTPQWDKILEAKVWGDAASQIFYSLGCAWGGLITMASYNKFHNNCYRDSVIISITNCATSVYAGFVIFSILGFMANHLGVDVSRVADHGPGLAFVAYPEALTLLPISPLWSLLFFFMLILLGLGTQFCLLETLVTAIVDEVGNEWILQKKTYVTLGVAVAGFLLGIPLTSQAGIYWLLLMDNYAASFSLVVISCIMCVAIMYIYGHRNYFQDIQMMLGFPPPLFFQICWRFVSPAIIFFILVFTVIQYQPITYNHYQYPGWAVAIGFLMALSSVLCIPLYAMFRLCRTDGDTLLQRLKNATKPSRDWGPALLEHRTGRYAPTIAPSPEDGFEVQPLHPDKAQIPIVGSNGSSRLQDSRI

The target of a further assay is human GlyT1c (Homo sapiens (Human), UniProt P48067). Nature of the assay: [3H]-Glycine uptake into recombinant CHO cells expressing human GlyT1. It counts as cell-based. The settings on record: hGlyT1c_5_CHO cells, 200 nM [3H]-glycine. Put shortly:
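hGlyT1c-expressing CHO cells plated at 20,000 cells/well and cultured 24 h; [3H]-glycine incorporation read continuously by solid-phase scintillation for up to 3 h. IC50 from four-parameter logistic fit using the linear uptake phase between 60 and 120 min.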

human GlyT1c, sequence (P48067 whole entry): as above

Take `CC(C)(C)CS(=O)(=O)NCCOc1ccc2c(c1)C(C1(c3ccc(Cl)cc3)CCC1)NCC2` (stereo not shown) [Example 155, N-[2-({1-[1-(4-Chlorophenyl)cyclobutyl]-1,2,3,4-tetrahydroisoquinolin-7-yl}oxy)ethyl]-2,2-dimethylpropane-1-sulfonamide hydrochloride]: the Ki at human GlyT1c transporter was ≤ 0.1 µM. Also, the concentration for half-maximal inhibition (IC50) on human GlyT1c is ≤ 10 µM.

Consider `Nc1ccc(S(=O)(=O)NCCOc2ccc3c(c2)C(C2(c4ccc(Cl)cc4)CCC2)NCC3)cn1` (stereo not shown) [Example 165, 6-Amino-N-[2-({1-[1-(4-chlorophenyl)cyclobutyl]-1,2,3,4-tetrahydroisoquinolin-7-yl}oxy)ethyl]pyridine-3-sulfonamide], for which the Ki on human GlyT1c transporter is ≤ 1 µM. Further, at human GlyT1c, the 50% inhibitory concentration (IC50) is ≤ 10 µM.

For the molecule `O=S(=O)(NCCOc1ccc2c(c1)C(C1(c3ccc(Cl)cc3)CCC1)NCC2)c1c(Cl)nc2sccn12` (stereo not shown) [Example 167, 6-Chloro-N-[2-({1-[1-(4-Chlorophenyl)cyclobutyl]-1,2,3,4-tetrahydroisoquinolin-7-yl}oxy)ethyl]imidazo[2,1-b][1,3]thiazole-5-sulfonamide hydrochloride], the Ki on human GlyT1c transporter is ≤ 1 µM. The 50% inhibitory concentration (IC50) on human GlyT1c is ≤ 10 µM.

As for `CCCS(=O)(=O)NCCOc1ccc2c(c1)C(C(O)(c1ccc(Cl)cc1)c1ccc(Cl)cc1)NCC2` (stereo not shown) [Example 176, N-[2-({1-[Bis(4-chlorophenyl)(hydroxy)methyl]-1,2,3,4-tetrahydroisoquinolin-7-yl}oxy)ethyl]propane-1-sulfonamide hydrochloride], the Ki on human GlyT1c transporter is ≤ 10 µM. On human GlyT1c, the IC50 is ≤ 10 µM.

As for `CN(C)CCCS(=O)(=O)NCCOc1ccc2c(c1)C(C1(c3ccc(Cl)cc3)CCC1)NCC2` (stereo not shown) [Example 181, N-[2-({1-[1-(4-Chlorophenyl)cyclobutyl]-1,2,3,4-tetrahydroisoquinolin-7-yl}oxy)ethyl]-3-(dimethylamino)propane-1-sulfonamide (2E)-but-2-enedioate], the Ki on human GlyT1c transporter was ≤ 10 µM. On human GlyT1c, the IC50 is ≤ 10 µM.

As to `O=S(=O)(NCCOc1ccc2c(c1)[C@@H](C1(c3ccc(Cl)cc3)CCC1)NCC2)c1cccnc1` [Example 182, N-[2-({(1R)-1-[1-(4-Chlorophenyl)cyclobutyl]-1,2,3,4-tetrahydroisoquinolin-7-yl}oxy)ethyl]pyridine-3-sulfonamide hydrochloride], at human GlyT1c transporter, the Ki was ≤ 10 µM. For the same molecule, the IC50 on human GlyT1c (hydrochloride) was ≤ 10 µM.

With `CCCN1CCN(S(=O)(=O)NCCOc2ccc3c(c2)C(C2(c4ccc(Cl)cc4)CCC2)NCC3)CC1` (stereo not shown) [Example 183, N-[2-({1-[1-(4-Chlorophenyl)cyclobutyl]-1,2,3,4-tetrahydroisoquinolin-7-yl}oxy)ethyl]-4-propylpiperazine-1-sulfonamide dihydrochloride], the Ki on human GlyT1c transporter was ≤ 10 µM. Besides, at human GlyT1c, the concentration for half-maximal inhibition (IC50) was ≤ 10 µM.

For the molecule `CCCNCCCS(=O)(=O)NCCOc1ccc2c(c1)C(C1(c3ccc(Cl)cc3)CCC1)NCC2` (stereo not shown) [Example 186, N-[2-({1-[1-(4-Chlorophenyl)cyclobutyl]-1,2,3,4-tetrahydroisoquinolin-7-yl}oxy)ethyl]-3-(propylamino)propane-1-sulfonamide (2E)-but-2-enedioate], at human GlyT1c transporter, the Ki was ≤ 10 µM. Further, on human GlyT1c, the IC50 was ≤ 10 µM.

With `CCNCCCS(=O)(=O)NCCOc1ccc2c(c1)C(C1(c3ccc(Cl)cc3)CCC1)NCC2` (stereo not shown) [Example 187, N-[2-({1-[1-(4-Chlorophenyl)cyclobutyl]-1,2,3,4-tetrahydroisoquinolin-7-yl}oxy)ethyl]-3-(ethylamino)propane-1-sulfonamide], at human GlyT1c transporter, the Ki was ≤ 10 µM. Further, the 50% inhibitory concentration (IC50) at human GlyT1c is ≤ 10 µM.

`CCN(CC)CCCS(=O)(=O)NCCOc1ccc2c(c1)C(C1(c3ccc(Cl)cc3)CCC1)NCC2` (stereo not shown) [Example 194, N-[2-({1-[1-(4-Chlorophenyl)cyclobutyl]-1,2,3,4-tetrahydroisoquinolin-7-yl}oxy)ethyl]-3-(diethylamino)propane-1-sulfonamide]: at human GlyT1c transporter, the Ki is ≤ 10 µM. Besides, on human GlyT1c, the IC50 was ≤ 10 µM.

Turning to `CC(C)NCCCS(=O)(=O)NCCOc1ccc2c(c1)C(C1(c3ccc(Cl)cc3)CCC1)NCC2` (stereo not shown) [Example 197, N-[2-({1-[1-(4-Chlorophenyl)cyclobutyl]-1,2,3,4-tetrahydroisoquinolin-7-yl}oxy)ethyl]-3-(propan-2-ylamino)propane-1-sulfonamide (2E)-but-2-enedioate], the Ki at human GlyT1c transporter was ≤ 10 µM. Besides, at human GlyT1c, the half-maximal inhibitory concentration (IC50) was ≤ 100 µM.

Take `O=S(=O)(CCCN1CCCCC1)NCCOc1ccc2c(c1)C(C1(c3ccc(Cl)cc3)CCC1)NCC2` (stereo not shown) [Example 200, N-[2-({1-[1-(4-Chlorophenyl)cyclobutyl]-1,2,3,4-tetrahydroisoquinolin-7-yl}oxy)ethyl]-3-(piperidin-1-yl)propane-1-sulfonamide (2E)-but-2-enedioate]: at human GlyT1c transporter, the Ki was ≤ 100 µM. Besides, the concentration for half-maximal inhibition (IC50) at human GlyT1c is ≤ 10 µM.

For the molecule `O=S(=O)(CCCN1CCOCC1)NCCOc1ccc2c(c1)C(C1(c3ccc(Cl)cc3)CCC1)NCC2` (stereo not shown) [Example 201, N-[2-({1-[1-(4-Chlorophenyl)cyclobutyl]-1,2,3,4-tetrahydroisoquinolin-7-yl}oxy)ethyl]-3-(morpholin-4-yl)propane-1-sulfonamide (2E)-but-2-enedioate], on human GlyT1c transporter, the Ki was ≤ 100 µM. The IC50 on human GlyT1c is ≤ 100 µM.

For `CCNC(=O)NCCS(=O)(=O)NCCOc1ccc2c(c1)C(C1(c3ccc(Cl)cc3)CCC1)NCC2` (stereo not shown) [Example 202, N-[2-({1-[1-(4-Chlorophenyl)cyclobutyl]-1,2,3,4-tetrahydroisoquinolin-7-yl}oxy)ethyl]-2-[(ethylcarbamoyl)amino]ethanesulfonamide (2E)-but-2-enedioate], the Ki on human GlyT1c transporter is ≤ 100 µM. Further, the IC50 at human GlyT1c is ≤ 10 µM.
